According to PubChem BioAssay AID2060599 (Molecular Pharmacology Branch, DTP, NCI, 2025):
Several values for one entry are separate records, joined by “and”; a condition that tells them apart may be missing. Identical values can stand only once.

System: 817829-284-R-J1-PDC complex spheroids, viability
Assay: Anticancer human tumor 817829-284-R-J1-PDC patient-derived colon adenocarcinoma cell line growth inhibition [CLK]
Conditions: for viability, T/C: stronger effect = lower value; for IC50: curve of compound
Text: A high-throughput screen of multi-cell type tumor spheroids was designed to identify active combinations of […] and targeted small molecules. Complex spheroids include a stromal component modeled by human endothelial cells (HUVEC) and fibroblasts modeled by human mesenchymal stem cells (MSCs). The concentration ranges selected for each drug and investigational agent were based upon clinically achievable concentrations if the clinical Cmax of the agent was known.
Compounds. The drugs and investigational agents: cirtuvivint (SM08502; NSC835563), CC-671 (NSC850746), vemurafenib (NSC761431), tapotoclax (NSC804041), sotorasib (NSC818433), adagrasib (NSC831453), MRTX-1133 (NSC836407), BAY2416964 (NSC825713), copanlisib (NSC816437), inavolisib (NSC800729), abemaciclib (NSC768073), osimertinib (NSC779217), entinostat (NSC756642), eltanexor (KPT-8602, NSC794443), venetoclax (NSC766270), ceralasertib (NSC777638), bortezomib (NSC756655), olaparib (NSC753686), talazoparib (NSC767125), alisertib (NSC759677), peposertib (NSC802822), gemcitabine (NSC613327), 5-fluorouracil (NSC19893), SN-38 (NSC673596), oxaliplatin (NSC266046), paclitaxel (NSC125973), and doxorubicin (NSC123127), were obtained from the National Cancer Institute (NCI) Developmental Therapeutics Program Chemical Repository. The FDA-approved anticancer drug set is available from the Developmental Therapeutics Program at https://dtp.cancer.gov/organization/dscb/obtaining/available plates.htm. […] The stock solutions were prepared in dimethyl sulfoxide (DMSO, Sigma-Aldrich, St. Louis, MO, cat. D2650), except for the platinum complexes which were prepared in saline (Quality Biological, Gaithersburg, MD, cat. 114-055-101), at 800-fold the tested concentration and stored at -70 degrees C prior to their use. All drugs and investigational agents were tested over a range starting from a high concentration at or near the clinical Cmax and decreasing in half-log increments. If the clinical Cmax for an agent had not been determined, the highest concentration tested was 10 microM.
Cell Culture. All cells were maintained in an incubator at 37 degrees C and 5% CO2 with 95% humidity. The PDC lines were cultured according to standard operating procedures established by the NCI PDMR. Briefly, all PDCs were thawed and cultured in Matrigel-coated flasks prepared with a working solution of 1X Ham's F-12 nutrient mix, without supplementation (Invitrogen, Waltham, MA, cat. 11765054), 100 U/mL penicillin-streptomycin (Invitrogen, cat. 15140122), and 2.5% Matrigel (Corning Inc., Corning, NY, cat. 354248) for the first three passages. The 947758-054-R-J2-PDC line was cultured in 6B/Colon 1A media, which includes advanced DMEM/F-12 (Thermo Fisher Scientific, cat. 12634028), 10 mM HEPES (Thermo Fisher Scientific, cat. 15630080), 1X GlutaMAX supplement (Thermo Fisher Scientific, cat. 35050061), 0.1 mg/mL primocin (InvivoGen, cat. ant-pm-2), 10% defined fetal bovine serum, heat inactivated (HyClone Laboratories Inc., cat. SH30070.03HI), 1.25 mM N-Acetyl-L-cysteine (Sigma-Aldrich, cat. A9165), 10 mM nicotinamide (Sigma-Aldrich, cat. N0636), 1X B-27 supplement (Thermo Fisher Scientific, cat. 17504044), 1X N-2 supplement (Thermo Fisher Scientific, cat. 17502048), and 10 microM Y-27632 dihydrochloride (Tocris Bioscience, cat. 1254). The 876862-298-R-J1-PDC was cultured in 6E media, which includes all 6B/Colon 1A media components plus 50% L-WRN conditioned media (ATCC, cat. CRL-3276), 50 ng/mL recombinant human EGF recombinant protein (hEGF; Thermo Fisher Scientific, cat. PHG0311), 10 ng/mL recombinant human fibroblast growth factor 10 (hGFG-10; PeproTech, cat. 100-26), 1 ng/mL recombinant human fibroblast growth factor 2 (hFGF-2; PeproTech, cat. 100-18B), and 1 µM prostaglandin E2 (PGE2; Tocris, cat. 2296). The 227483-062-R1-J1-PDC line was cultured in Panc media, containing all 6E components except hFGF-2, with the addition of 500 nM SB-431542 (Selleckchem, cat. S1067) and 10 nM gastrin (Tocris, cat. 3006). […]
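Further: spheroids exposed to the agents for seven days before readout.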

Row | Compound | IC50 | viability, T/C (compound 0.0316 µM) | viability, T/C (compound 0.1 µM) | viability, T/C (compound 0.316 µM) | viability, T/C (compound 1 µM) | viability, T/C (compound 3.16 µM) | viability, T/C (compound 10 µM) | viability, T/C (compound 0.000949 µM) | viability, T/C (compound 0.003 µM) | viability, T/C (compound 0.00949 µM) | viability, T/C (compound 0.03 µM) | viability, T/C (compound 0.0949 µM) | viability, T/C (compound 0.3 µM) | viability, T/C (compound 0.00316 µM) [%] | viability, T/C (compound 0.01 µM) [%]
1 | C=CC(=O)Nc1cc(Nc2nccc(-c3cn(C)c4ccccc34)n2)c(OC)cc1N(C)CCN(C)C | > 0.3 µM |  |  |  |  |  |  | 108% | 101% | 85.9% | 72.9% | 99.5% | 73.8% |  | 
2 | CC(C)CC(NC(=O)C(Cc1ccccc1)NC(=O)c1cnccn1)B(O)O (configuration not stated) | 0.00151 µM and 0.00163 µM |  |  |  |  |  |  | 80.8% and 93.1% | 4.56% and 1.33% | 0.1% and 0.36% | 0.16% and 0.15% | 0.05% and 0.24% | 0.08% and 0.2% |  | 
3 | CC(Nc1ccc2c(c1)OCCn1cc(N3C(=O)OCC3C(F)F)nc1-2)C(N)=O (configuration not stated) | 1.42 µM and 0.834 µM | 62.2% and 116% | 92% and 69.5% | 72.2% and 60.7% | 51.6% and 59.1% | 52.4% and 39.5% | 35.8% and 37.7% |  |  |  |  |  |  |  | 
4 | CCCS(=O)(=O)Nc1ccc(F)c(C(=O)c2c[nH]c3ncc(-c4ccc(Cl)cc4)cc23)c1F | 1.21 µM and 4.11 µM | 86.7% and 79.4% | 48.8% and 64.2% | 66% and 89% | 54.1% and 77% | 52.5% and 59.8% | 25.3% and 16.9% |  |  |  |  |  |  |  | 

Second part, led by results:

Row | IC50 | Compound | viability, T/C (compound 0.0316 µM) | viability, T/C (compound 0.1 µM) | viability, T/C (compound 0.316 µM) | viability, T/C (compound 1 µM) | viability, T/C (compound 3.16 µM) | viability, T/C (compound 10 µM) | viability, T/C (compound 0.000949 µM) | viability, T/C (compound 0.003 µM) | viability, T/C (compound 0.00949 µM) | viability, T/C (compound 0.03 µM) | viability, T/C (compound 0.0949 µM) | viability, T/C (compound 0.3 µM) | viability, T/C (compound 0.00316 µM) [%] | viability, T/C (compound 0.01 µM) [%]
5 | > 10 µM | C#Cc1c(F)ccc2cc(O)cc(-c3ncc4c(N5CC6CCC(C5)N6)nc(OCC56CCCN5CC(F)C6)nc4c3F)c12 (configuration not stated) | 126% and 105% | 74% and 131% | 116% and 80.9% | 81.9% and 122% | 60% and 100% | 62.3% and 79.4% |  |  |  |  |  |  |  | 
6 | 1.77 µM and 1.85 µM | C=C(F)C(=O)N1CCN(c2nc(OCC3CCCN3C)nc3c2CCN(c2cccc4cccc(Cl)c24)C3)CC1CC#N (configuration not stated) | 99.4% and 105% | 73% and 144% | 141% and 96.3% | 77.1% and 84.6% | 20.8% and 21.4% | 0.08% and 0.14% |  |  |  |  |  |  |  | 
7 | > 10 µM | C=CC(=O)N1CCN(c2nc(=O)n(-c3c(C)ccnc3C(C)C)c3nc(-c4c(O)cccc4F)c(F)cc23)C(C)C1 (configuration not stated) | 101% and 136% | 97.2% and 101% | 101% and 92.9% | 100% | 101% | 57% and 87.9% |  |  |  |  |  |  |  | 
8 | 7.96 µM and > 10 µM | CC(CO)NC(=O)c1cc(-c2ccc(Cl)cc2)nn(-c2cnn(C)c2)c1=O (configuration not stated) | 119% and 99.1% | 68.1% and 82.7% | 102% and 165% | 108% and 100% | 79.3% and 88.4% | 42.8% and 52.4% |  |  |  |  |  |  |  | 
9 | 4.31 µM | CC1(C)CCC(CN2CCN(c3ccc(C(=O)NS(=O)(=O)c4ccc(NCC5CCOCC5)c([N+](=O)[O-])c4)c(Oc4cnc5[nH]ccc5c4)c3)CC2)=C(c2ccc(Cl)cc2)C1 | 103% | 85.1% | 98.6% | 63.7% | 77.5% | 2.29% |  |  |  |  |  |  |  | 
10 | 0.626 µM | CC1COCCN1c1cc(C2(S(C)(=N)=O)CC2)nc(-c2ccnc3[nH]ccc23)n1 (configuration not stated) | 63.5% | 99.9% | 62.4% | 39% | 9.17% | 4.99% |  |  |  |  |  |  |  | 
11 | > 1 µM | CCN1CCN(Cc2ccc(Nc3ncc(F)c(-c4cc(F)c5nc(C)n(C(C)C)c5c4)n3)nc2)CC1 | 57.5% | 50.8% | 85.4% | 39.3% |  |  |  |  |  |  |  |  | 79.4 | 55.3
